According to PMC12647892, “State-selective small molecule degraders that preferentially remove aggregates and oligomers” (Nature Communications, 2025):

Biological target: T1, TRIM21 PRYSPRY (Homo sapiens, UniProt P19474)
T1 construct: PRYSPRY domain (TRIM21his-PS)
Test: crystal structure; fluorescence polarisation, tryptophan quenching, nanoDSF
Assay type: binding

T1 sequence (P19474 287-465 limits assumed): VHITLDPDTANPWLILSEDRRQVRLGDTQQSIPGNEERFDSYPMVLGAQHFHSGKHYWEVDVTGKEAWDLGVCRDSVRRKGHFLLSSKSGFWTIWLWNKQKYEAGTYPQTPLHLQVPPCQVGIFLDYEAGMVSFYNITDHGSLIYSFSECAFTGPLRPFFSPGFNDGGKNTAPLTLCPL

Kd: 400 nM
SMILES: CNC(=O)[C@H](Cc1ccncc1)NC(=O)[C@@H]1C[C@@H](C2CCCCC2)CN1C(=O)C[C@H](N)c1ccccc1OC [MRC37]
